Source: patent US20230073301A1, “TISSUE DOSING FOR INTRALUMINAL LOCAL DRUG DELIVERY” (ISOLA THERAPEUTICS, INC., priority 2020, published 2023)
Several values for one entry are separate records, joined by “and”; a condition that tells them apart may be missing. Identical values can stand only once. Like-named read-outs stand apart in the source and are kept apart here. One block for each compound: values may come before it.

How the values were obtained:
[1] = GMX002 plasma PTX concentration after local lung lavage; format: in vivo, porcine
Method: For GMX002 (local), anatomy permitting, 2 animals were divided into a 20 minute animal and a 72 hour animal.
The necropsy for tissue collection was completed to obtain information on the drug concentration within the lung and lung lymph nodes.
The chronic (72 hour) animal in the study was recovered with blood plasma samples collected immediately after infusion, followed by additional blood plasma collection occurring at 5, 15, and 30 minutes following infusion. More blood plasma was collected after 1, 3, 5, 9, 24, and 72 hours. The necropsy for tissue collection took place 72 hours after infusion with drug concentration measurements in the lung and lung lymph nodes. Histopathology was done on the lung.
Animal 19P0844 was infused with 700 mL. Animal 19P1241 was infused with approximately 900 mL.
Animal 19P1241 had 2 mL of blood collected at baseline and at 5, 10, 15 and 20 minutes of infusion. Plasma was collected for processing. Animal 19P0884 had 2 mL of blood collected at baseline, 5, 10, 15 and 20 minutes of infusion. Following infusion, blood was collected at 5, 15, 30 minutes with more blood being collected after 1, 3, 5, 9, 24, and 72 hours.

[2] = format: in vivo, porcine
Method: (§1) For GMX001, both animals underwent surgery to place two (2) CVL catheters, 1 for infusion and 1 for plasma collection. The animals were allowed to recover and stabilize.
Animal 19P0837 had 2 mL of blood collected at baseline and after the 3 hours infusion. […] Blood was processed and sent to Analytical for processing. […] The animal survived to the scheduled term with signs of discomfort as per technician's observations. The animal had blisters on the chest at day 3, prior to term.
Gross examination of the lungs, colon, jejunum, regional lymph nodes, and collateral structures was conducted. […] Lungs were also slightly heavy. […] Small intestine appeared bloated diffusely. The lumen of darkened jejunum section appeared mottled dark purple to black. There were no other abnormal findings noted at necropsy.

[3] = GMX001 colon tissue PTX concentration after systemic infusion; format: in vivo, porcine; conditions: 3 hour animal 19P0837; for concentration at 3 h: pig, intravenous, 4.28 mg/kg/hr, Colon PTX concentration
Description: Three samples each were taken from the rectum, transverse (tran) colon, ascending (asc) colon, descending (desc) colon and colon lymph nodes (LN).

[4] = GMX001 plasma PTX concentration after systemic infusion (LC/MS); format: in vivo, porcine; conditions: pig; for concentration at 3 h: systemic infusion 175 mg/m^2 over 3 hours; for Cmax: iv, 175 mg/m2, systemic
Method: The systemic studies were denoted GMX001 and local administration studies GMX002.
For GMX001 (systemic), anatomy permitting, 2 animals were used and divided into a 3 hour animal and a 72 hour animal.
as §1

[5] = GMX002 lung tissue PTX concentration after local lung lavage; format: in vivo, porcine; conditions: for concentration at 20 min: pig
Method: A blood sample was also collected at 0, 5, 10, 15, and 20 minutes.
(§2) Spectra were compared to the validated protocol and standard curve generated for the study.
The acute animal (19P1241) and the chronic animal (19P0884) were sent to necropsy for gross pathology and tissue harvesting. Three full thickness lung tissue sample from each of the cranial (cran) caudal (caud) and middle (mid) lobes of the untreated left lung and three lung tissue samples from each of the cranial (cran) caudal (caud) and middle (mid) lobes of the treated right lung were taken from the 20 minute animal, frozen and sent for analytical analysis.

[6] = Animal experiment, second pig: endoluminal airway paclitaxel, lung tissue concentration; conditions: soaking solution 75.8 μM in airways, approximately 20 minutes dwell
Method: (§3) A first pig was given 4.28 mg/kg/hr of paclitaxel systemically, i.e., intravenously over three hours. […] Next, the lung tissue in a second pig was saturated with paclitaxel via the airways by an endoluminal approach. […] The drug solution dwelled in the airways of the second animal for approximately 20 minutes to ensure saturation of the lung tissue before being evacuated from the airways.

in vivo [7] = conditions: pig, intravenous
Description: (§4) The necropsy for tissue collection after the last plasma sample focused on drug concentration and included: lung, lung lymph nodes, colon, and the colon lymph nodes.
as §2
(§5) The acute animal (19P0837) and the chronic animal (19P0997) were sent to necropsy for gross pathology and tissue harvesting. Three full thickness lung tissue samples from each of the cranial (cran) caudal (caud) and middle (mid) lobes were frozen and sent for analytical analysis.

[8] = Animal experiment, first pig: systemic paclitaxel, plasma and lung tissue concentration
Method: as §3

[9] = GMX001 lung and lung lymph node PTX concentration after systemic infusion
Description: as §4, §2, §5

[10] = humans; systemic administration; cited from earlier work
[11] = Porcine local levofloxacin: pathology and side effects; format: in vivo
Method: (§6) Porcine studies were performed similarly to as described in Example A but using levofloxacin as the drug agent. Only local administration to the lung was performed.

[12] = pig, in vivo
Method: as §6

in vivo [13] = conditions: pig
Method: as §6

[14] = humans, cited from earlier work
[15] = local lavage of right lung, 20 min, animal 19P1241
[16] = lung tissue (RT mid lung), 175 mg/m^2
[17] = systemic, 3 hour animal 19P0837
[18] = systemic, 72 hour animal 19P0997

Structure (SMILES): CC(=O)O[C@H]1C(=O)[C@@]2(C)[C@H]([C@H](OC(=O)c3ccccc3)[C@]3(O)C[C@H](OC(=O)[C@H](O)[C@@H](NC(=O)c4ccccc4)c4ccccc4)C(C)=C1C3(C)C)[C@]1(OC(C)=O)CO[C@@H]1C[C@@H]2O [PTX, 5β,20-Epoxy-1,2α,4,7β,10β,13α-hexahydroxytax-11-en-9-one 4,10-diacetate 2-benzoate 13-ester with (2R,3S)-N-benzoyl-3-phenylisoserine]
plasma Cmax local / systemic ([1]; […]57000 ng/mL): 0.048%
plasma Cmax local / systemic ([1]; […]67100 ng/mL): 0.041%
plasma Cmax for local administration as % of plasma Cmax with systemic administration ([1]; local vs systemic): less than 0.05%
plasma Cmax lower with local than with systemic administration ([1]; local vs systemic): more than 2000 fold
time of peak plasma concentration after end of lung infusion ([1]; local, 32,000 ng/mL, after the lung was cleared of the drug): 5 min
time of peak concentration of PTX in plasma after infusion initiation ([1]; local, 72 hour animal 19P0844): 25
Cmax ([1]; pig, plasma, other: local lung lavage (right lung, via catheter), 32000 ng/mL (lavage solution), local, 5 minutes post local infusion, read-out: maximum concentration in plasma (Cmax)): 27.6 ng/mL
early mortality ([2]; GMX001): no early mortality
distress with infusion ([2]; pig, in vivo): showed distress
terminal clinical pathology ([2]; pig, in vivo): decrease in WBC, neutrophils, lymphocytes and platelet counts
Colon PTX concentration, asc colon [3]: 16900 ng/g and 13200 ng/g
Colon PTX concentration, colon LN [3]: 12700 ng/g and 17700 ng/g
Colon PTX concentration, desc colon [3]: 12700 ng/g and 12800 ng/g
Colon PTX concentration, rectum [3]: 14100 ng/g and 16000 ng/g
Colon PTX concentration, tran colon [3]: 14600 ng/g and 13200 ng/g
concentration at 3 h ([3]; ascending colon, asc colon): 10800 ng/g
concentration at 3 h ([3]; colon lymph nodes, colon LN): 19600 ng/g
concentration at 3 h ([3]; descending colon, desc colon): 12500 ng/g
concentration at 3 h ([3]; rectum): 14400 ng/g
concentration at 3 h ([3]; transverse colon, tran colon): 13500 ng/g
concentration at 3 h ([4]; intravenous, 175 mg/m^2, Blood PTX concentration, animal 19P0837, 3 hr): 57000 ng/mL
concentration at 3 h ([4]; intravenous, 175 mg/m^2, Blood PTX concentration, animal 19P0997, 3 hr): 67100 ng/mL
concentration at 4 h ([4]; intravenous, 175 mg/m^2, Blood PTX concentration, systemic infusion, animal 19P0997, 4 hr): 43100 ng/mL
concentration at 6 h ([4]; intravenous, 175 mg/m^2, Blood PTX concentration, systemic infusion, animal 19P0997, 6 hr): 28500 ng/mL
concentration at 8 h ([4]; intravenous, 175 mg/m^2, Blood PTX concentration, systemic infusion, animal 19P0997, 8 hr): 27100 ng/mL
concentration at 12 h ([4]; intravenous, 175 mg/m^2, Blood PTX concentration, systemic infusion, animal 19P0997, 12 hr): 20500 ng/mL
concentration at 24 h ([4]; intravenous, 175 mg/m^2, Blood PTX concentration, systemic infusion, animal 19P0997, 24 hr): 9110 ng/mL
concentration at 72 h ([4]; intravenous, 175 mg/m^2, Blood PTX concentration, systemic infusion, animal 19P0997, 72 hr): 713 ng/mL
Cmax ([4]; 3 hour animal): 57000 ng/mL
Cmax ([4]; 72 hour animal): 67100 ng/mL
Lung PTX concentration, RT caud lung [5, 15]: 35300 ng/g tissue and 29800 ng/g tissue
Lung PTX concentration, RT cran lung [5, 15]: 32100 ng/g tissue and 38400 ng/g tissue
Lung PTX concentration, RT Mid Lung ([5]; local lavage of right lung, 20 min, animal 19P1241, middle lobe believed blocked): 760 ng/g tissue and 557 ng/g tissue
lower drug concentration with local vs systemic administration for same lung tissue uptake ([5]; local vs systemic): 37 fold
concentration at 20 min ([5]; lung tissue, other: local lung lavage (right lung, via catheter), 32000 ng/mL (lavage solution), PTX in lung tissue achieved, local administration (GMX002)): > 30000 ng/g
concentration at 20 min ([5]; lung tissue, other: local lung lavage (right lung, via catheter), 32000 ng/mL (lavage solution), PTX per g of lung tissue, local, acute animal): ~32000 ng/g
concentration at 20 min ([5]; lung tissue, other: local lung lavage (right lung, via catheter), 32000 ng/mL (lavage solution), highest PTX level in lung tissue, local administration): 38400 ng/g
concentration at 20 min ([5]; lung, caudal lobe of the treated right lung, 32000 ng/mL, Lung PTX concentration, RT Caud Lung, local lavage of right lung, 20 min, animal 19P1241): 34600 ng/g
concentration at 20 min ([5]; lung, middle lobe of the treated right lung, 32000 ng/mL, Lung PTX concentration, RT Mid Lung, local lavage of right lung, 20 min, animal 19P1241, middle lobe believed blocked): 749 ng/g
average lung tissue concentration TC [6]: 40.4 µM
concentration at 72 h (in vivo [7]; lung lymph node, 175 mg/m^2): 4340 ng/g
concentration at 3 h (in vivo [7]; lung tissue (RT caud lung), 175 mg/m^2): 42900 ng/g
concentration at 3 h (in vivo [7]; lung tissue (RT cran lung), 175 mg/m^2): 32200 ng/g
concentration at 3 h (in vivo [7]; [16]): 32000 ng/g
concentration at 72 h (in vivo [7]; [16]): 3560 ng/g
concentration at 72 h (in vivo [7]; lung, right caudal lobe, 4.28 mg/kg/hr): 2720 ng/g
maximum plasma concentration MPC ([8]; 4.28 mg/kg/hr intravenously over three hours): 78.58 µM
average lung tissue concentration TC ([8]; samples immediately after systemic delivery): 37.9 µM
early mortality (GMX002): no early mortality
Clinical observations (pig, in vivo): GMX002: Unremarkable
Physical examination (pig, in vivo): GMX002: Unremarkable
adverse events / clinical observations (pig, in vivo): did not have any adverse events
distress or complications during administration (pig, in vivo): did not show signs of distress or complications
gross necropsy findings (pig, in vivo): no other abnormal findings noted at necropsy that could be attributed to the treatment
terminal clinical pathology (pig, in vivo): clinical markers comparable to baseline
decrease of lung PTX concentration 72 hours following systemic administration ([9]; 3 hour animal 19P0837 vs 72 hour animal 19P0997): approximately 3.5 fold
PTX in lung tissue achieved ([9]; systemic administration (GMX001)): greater than 30000 ng/g
lung tissue concentration range ([9]; systemic drug delivery at 3 hours): 12,500-41,200 ng/g
Lung PTX concentration, RT caud lung [9, 17]: 28800 ng/g and 31600 ng/g
Lung PTX concentration, RT cran lung [9, 17]: 27000 ng/g and 27300 ng/g
Lung PTX concentration, RT mid lung [9, 17]: 41200 ng/g and 28300 ng/g
Lung PTX concentration, RT caud lung [9, 18]: 2070 ng/g
Lung PTX concentration, RT cran lung [9, 18]: 2660 ng/g
Lung PTX concentration, RT mid lung [9, 18]: 2590 ng/g
Lung PTX concentration, lung LN ([9]; systemic, 72 hour animal 19P0997, lung lymph node samples): 4240 ng/g

Sputum levels [12]: 32 µg/mL
Cmax (in vivo [13]): 291 ng/mL
Structure (SMILES): C[C@H]1COc2c(N3CCN(C)CC3)c(F)cc3c(=O)c(C(=O)O)cn1c23 [levofloxacin]
Typical plasma Cmax [10]: 5600 ng/mL
lung damage at pathology ([11]; following local delivery): No lung damage was observed
side effects ([11]; local delivery): no significant side effects

Structure (SMILES): N.N.[Cl][Pt][Cl] [cisplatin]
Cmax ([14]; systemic administration, read-out: Typical plasma Cmax): 30 µM
typical lung tissue Cmax ([14]; systemic delivery): 170 µM
